Key:
hGLP1R mice = test: Glucose tolerance test in hGLP1R mice after single oral administration; type: in vivo; details: 1 mg/kg oral once; for onset of blood glucose reduction compared with comparative example compound DB03 / blood glucose reduction effect compared with comparative example compound DB03: FIG. 3 and FIG. 4; for blood glucose reduction effect compared with PF-06882961: glucose 2 g/kg i.p. 60 minutes later
Protocol: Genetically engineered hGLP1R mice, male, purchased from Biocytogen Jiangsu Gene Biotechnology Co., Ltd., were fasted overnight before the glucose tolerance test (IPTGG), without water deprivation. A solvent or corresponding compound was orally administered once, a glucose solution (2 g/kg) was intraperitoneally injected 60 minutes after administration, and a blood glucose value before administration of glucose (equivalent to a blood glucose value of 0 minute) and blood glucose values 15 minutes, 30 minutes, 60 minutes and 120 minutes after administration of glucose were measured. The solvent was 5% DMSO+40% PEG400+55% physiological saline, and a dosage of the compound was 1 mg/kg (n=3).

hERG potassium channel = biological target: T1, hERG potassium channel (Homo sapiens, UniProt Q12809); test: hERG test, patch clamp on HEK-293 cells stably expressing hERG potassium channel; type: cell-based; details: HEK-293 cell line stably expressing hERG, read-out: IC50 (μM) of inhibitory effect on hERG potassium channel current
T1 construct: host or cells: HEK-293 stably expressing hERG
T1 sequence (Q12809 whole entry): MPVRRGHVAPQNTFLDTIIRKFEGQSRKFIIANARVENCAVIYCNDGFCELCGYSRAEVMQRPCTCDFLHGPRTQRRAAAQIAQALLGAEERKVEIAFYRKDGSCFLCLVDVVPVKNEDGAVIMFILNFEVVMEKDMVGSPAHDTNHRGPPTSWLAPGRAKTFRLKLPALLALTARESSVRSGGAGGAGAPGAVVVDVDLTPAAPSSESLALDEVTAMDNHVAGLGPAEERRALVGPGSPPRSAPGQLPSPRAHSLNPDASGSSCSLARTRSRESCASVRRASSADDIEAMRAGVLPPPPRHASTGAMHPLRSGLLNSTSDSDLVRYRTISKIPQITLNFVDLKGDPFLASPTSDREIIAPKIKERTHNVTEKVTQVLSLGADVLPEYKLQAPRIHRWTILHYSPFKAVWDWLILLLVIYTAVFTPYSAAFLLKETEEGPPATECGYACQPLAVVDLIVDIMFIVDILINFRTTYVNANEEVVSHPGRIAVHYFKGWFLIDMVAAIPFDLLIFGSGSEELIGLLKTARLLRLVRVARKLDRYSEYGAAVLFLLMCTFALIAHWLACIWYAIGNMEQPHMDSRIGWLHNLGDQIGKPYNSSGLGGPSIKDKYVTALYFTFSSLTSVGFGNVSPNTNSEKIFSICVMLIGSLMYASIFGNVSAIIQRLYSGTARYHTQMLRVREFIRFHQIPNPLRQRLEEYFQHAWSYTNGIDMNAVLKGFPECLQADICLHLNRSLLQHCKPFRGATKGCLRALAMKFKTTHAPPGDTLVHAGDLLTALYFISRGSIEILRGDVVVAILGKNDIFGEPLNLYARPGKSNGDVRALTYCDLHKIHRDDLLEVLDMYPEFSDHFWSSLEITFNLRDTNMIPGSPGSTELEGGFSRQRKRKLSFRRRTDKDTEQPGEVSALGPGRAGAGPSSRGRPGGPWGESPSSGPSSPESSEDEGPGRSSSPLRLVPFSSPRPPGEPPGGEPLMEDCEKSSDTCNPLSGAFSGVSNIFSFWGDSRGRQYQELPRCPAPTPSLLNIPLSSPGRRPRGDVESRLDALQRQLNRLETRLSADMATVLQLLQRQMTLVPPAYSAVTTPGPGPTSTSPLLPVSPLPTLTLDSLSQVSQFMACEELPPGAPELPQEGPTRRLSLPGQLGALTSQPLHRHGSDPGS
Protocol: Test object: influences of compounds on an hERG potassium channel current were tested by a full-automatic patch clamp method.
• (1) An HEK-293 cell line stably expressing an hERG potassium channel was adopted, and hERG potassium channel cells were purchased from Creacell Company. • (2) The HEK-293 cell line stably expressing the hERG potassium channel was cultured in a DMEM culture medium containing 10% fetal bovine serum and 0.8 mg/mL G418 at 37° C. under a carbon dioxide concentration of 5%. • (3) Cell passage: the old culture medium was removed, and the cells were washed once with PBS, then added with 1 mL of TrypLE™ Express solution, and incubated at 37° C. for about 0.5 minutes. When the cells were separated from a dish bottom, about 5 mL of complete culture medium preheated at 37° C. was added. A cell suspension was gently blown with a straw to separate the aggregated cells. The cell suspension was transferred to a sterile centrifuge tube and centrifuged at 1000 rpm for 5 minutes to collect the cells. In amplification or maintenance of culture, the cells were inoculated into a 6 cm cell culture dish, and the number of cells inoculated into each cell culture dish was 2.5×10^5 cells (final volume: 5 mL). In order to maintain an electrophysiological activity of cells, a cell density should not exceed 80%. • (4) In patch clamp detection, before the test, the cells were separated by TrypLE™ Express, and 4×10^3 cells were spread on a cover slip and cultured in a 24-well plate (final volume: 500 μL). After 18 hours, the test was carried out for detection. Data analysis:
A current after an effect of each drug concentration and a blank control current
were standardized first, and then an inhibition rate
corresponding to each drug concentration was calculated. A mean number and a standard error were calculated for each concentration, and a semi-inhibitory concentration of each compound was calculated by the following equation: […]
A dosage-dependent effect was nonlinearly fitted by the above equation, wherein C represented a concentration of a test sample, IC50 represented a semi-inhibitory concentration, and h represented a Hill coefficient. Curve fitting and IC50 calculation were completed by IGOR software.

GLP1R = GLP1R (Homo sapiens, UniProt P43220); test: Agonist activity on GLP1R/CRE-LUC HEK293 cells (luciferase reporter, ONE-Glo); type: cell-based; details: for EC50: GLP1R/CRE-LUC HEK293 cells, 6 hours incubation, chemiluminescence signal; for activity compared with comparative example compounds PF-06882961, DB02, DB03 and DB06: from Table 1, also much higher than DB04 and DB05
GLP1R, sequence (P43220 24-463): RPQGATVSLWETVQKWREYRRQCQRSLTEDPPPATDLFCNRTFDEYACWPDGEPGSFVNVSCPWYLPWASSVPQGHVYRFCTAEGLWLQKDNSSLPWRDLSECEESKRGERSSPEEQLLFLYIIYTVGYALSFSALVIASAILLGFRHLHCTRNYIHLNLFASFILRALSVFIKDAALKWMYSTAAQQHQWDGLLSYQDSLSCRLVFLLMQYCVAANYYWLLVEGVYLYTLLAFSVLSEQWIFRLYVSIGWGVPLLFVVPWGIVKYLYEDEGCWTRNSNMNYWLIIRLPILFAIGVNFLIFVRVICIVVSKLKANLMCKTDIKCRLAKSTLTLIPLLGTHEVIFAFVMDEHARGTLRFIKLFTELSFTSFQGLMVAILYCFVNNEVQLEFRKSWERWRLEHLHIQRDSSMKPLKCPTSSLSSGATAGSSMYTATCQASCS
Protocol: Logarithmically growing GLP1R/CRE-LUC HEK293 cells (purchased from Nanjing Cobioer) were digested, the digested cells were re-suspended in a DMEM+10% FBS culture medium, and a cell density was adjusted to be 3.5*10^5/mL. The cell solution was added into a 96-well cell culture plate by 100 µL/well, and the plate was cultured overnight in an incubator (37° C., 5% CO2).
A compound was dissolved with DMSO to prepare a storage solution at an initial concentration of 10 mM, an initial concentration of the small molecular compound was 0.2 mM, and the compound was diluted by 3 times and 10 points were diluted, while the 11th point was DMSO. Another 96-well plate was taken, added with 95 μL of cell culture solution (DMEM+10% FBS) in each well, then added with 5 μL of to-be-tested samples at different concentrations in each well, mixed evenly, and then added with 11 μL of to-be-tested samples at different concentrations in each well of the cell culture plate, and each sample had two wells. The culture plate was incubated in an incubator for 6 hours (37° C., […]). The 96-well cell culture plate was taken out, added with 100 μL of ONE-Glo™ reagent in each well, and incubated at room temperature for 10 minutes, and a chemiluminescence signal value was measured with an enzyme-labeled instrument. Data were processed and analyzed by Microsoft Excel and Graphpad Prism6 to obtain an EC50 value of the compound.

[1] = Pharmacokinetic studies in SD rats; type: in vivo; details: Sprague-Dawley (SD), rat, plasma
[2] = blood glucose curves and AUC (0 to 120 minutes)

Row | Structure (SMILES) | onset of blood glucose reduction compared with comparative example compound DB05 (hGLP1R mice; FIG. 1 and FIG. 2) | onset of blood glucose reduction compared with comparative example compound DB03 (hGLP1R mice) | blood glucose reduction effect compared with PF-06882961 (hGLP1R mice; [2]) | blood glucose reduction effect compared with comparative example compound DB05 (hGLP1R mice; blood glucose curves and AUC (0 to 120 minutes), FIG. 1 and FIG. 2) | blood glucose reduction effect compared with comparative example compound DB03 (hGLP1R mice; [2]) | IC50 (hERG potassium channel) [µM] | EC50 (GLP1R) [µM] | activity compared with comparative example compounds PF-06882961, DB02, DB03 and DB06 (GLP1R) | half-life [1] [h]
1 | O=C(O)c1ccc2nc(Cc3ccc(-c4cccc(OCc5ccc(Cl)c6ccoc56)n4)cc3F)n(C[C@@H]3CCO3)c2c1 [Compound 17] | took effect more quickly | took effect more quickly | significantly better | significantly better | absolutely better | > 30 |  |  | 
2 | O=C(O)c1ccc2nc(Cc3ccc(-c4cccc(OCc5ccc(Cl)c6cc(F)oc56)n4)cc3F)n(C[C@@H]3CCO3)c2c1 [Compound 21] |  |  | significantly better |  |  | > 30 | 0.00096 | higher | 6 to 10
3 | O=C(O)c1ccc2nc(Cc3ccc(-c4ccc(F)c(OCc5ccc(Cl)c6ccoc56)n4)cc3F)n(C[C@@H]3CCO3)c2c1 [Compound 93] |  | took effect more quickly | significantly better |  | absolutely better | > 30 | 0.00289 | higher | 6 to 10
4 | O=C(O)c1ccc2nc(Cc3ccc(-c4ccc(F)c(OCc5ccc(Cl)c6cc(F)oc56)n4)cc3F)n(C[C@@H]3CCO3)c2c1 [Compound 94] |  |  | significantly better |  |  | > 30 | 0.00089 | higher | 6 to 10
5 | O=C(O)c1ccc2nc(Cc3ccc(-c4cccc(OCc5ccc(Cl)c6cc(Cl)oc56)n4)cc3F)n(C[C@@H]3CCO3)c2c1 [Compound 99] |  |  | significantly better |  |  | > 30 |  |  | 6 to 10
6 | O=C(O)c1ccc2nc(Cc3ccc(-c4ccc(F)c(OCc5ccc(Cl)c6cc(Cl)oc56)n4)cc3F)n(C[C@@H]3CCO3)c2c1 [Compound 100] |  | took effect more quickly | significantly better |  | absolutely better | > 30 | 0.00202 | higher | 6 to 10
7 | O=C(O)c1ccc2nc(Cc3ccc(-c4cccc(OCc5ccc(Cl)cc5F)n4)cc3F)n(C[C@@H]3CCO3)c2c1 [DB03, reference compound] |  |  |  |  |  | > 10 |  |  | 2.94
8 | N#Cc1ccc(COc2cccc(C3CCN(Cc4nc5ccc(C(=O)O)cc5n4C[C@@H]4CCO4)CC3)n2)c(F)c1 [PF-06882961, reference compound] |  |  |  |  |  | 9.35 |  |  | 3.13
